Values after ≈ are worked out from the molar mass of the structure shown.
Tests used:
[1] = system: gram-positive and gram-negative bacteria; details: PBT2 in the presence of zinc; cited from earlier work
[2] = system: Neisseria gonorrhoeae WHO Z; experiment: Time-kill assay; format: cell-based; details: PBT2 alone at 0.313 mg/L (MIC)
From the text: FIG. 1: Time-kill curves of Neisseria gonorrhoeae WHO Z in GC broth with or without PBT2. Error bars indicate standard deviation from 3 biological replicates.

[3] = system: non-typeable Haemophilus influenzae (NTHi); experiment: Sensitivity across NTHi strains; format: cell-based; details: all strains tested
Protocol: (§1) The MIC of PBT2 against five non-typeable Haemophilus influenzae (NTHi) strains was determined (CLSI. 2022. Performance Standards for Antimicrobial Susceptibility Testing, 32nd Edition. Clinical and Laboratory Standards Institute).

[4] = system: Neisseria gonorrhoeae strain WHO Z; experiment: Ex vivo Neisseria gonorrhoeae infection of human cervical (Pex) cells; format: cell-based
From the text: FIG. 4: Chart indicating PBT2 can cure Neisseria gonorrhoeae infection of human cervical (Pex) cells. […] Ceftriaxone (CRO, positive control) is currently recommended for gonorrhoea treatment. Veh—0.1% DMSO vehicle control; UT—untreated; * p<0.0001 versus vehicle for CRO or PBT2 treatment.
(§2) To assess the ability of PBT2 to cure an established gonococcal infection in a human ex vivo system, primary human cervical epithelial (Pex) cells were challenged with Neisseria gonorrhoeae strain WHO Z for 90 min and then treated with 0.1% DMSO (vehicle control), PBT2 (0.016 mg/L to 4.695 mg/L), or ceftriaxone (0.5 mg/L, positive control) for 24 h. Viable gonococci were then enumerated. […] PBT2-induced Pex cell cytotoxicity was not observed during the assay.

[5] = system: primary human cervical epithelial (Pex) cells; experiment: PBT2-induced Pex cell cytotoxicity; format: cell-based; details: PBT2 0.016 to 4.695 mg/L; 24 h
Protocol: as §2

Campylobacter jejuni = experiment: Sensitivity across Campylobacter jejuni strains; format: cell-based; details: all strains tested
Protocol: (§3) The MIC of PBT2 against three Campylobacter jejuni strains was determined. All strains tested were sensitive to PBT2.

[6] = system: Neisseria gonorrhoeae strain WHO Z; experiment: MIC of Triton X-100 with/without PBT2; format: cell-based; details: 0.156 mg/L (sub-MIC) PBT2
From the text: Without wishing to be bound by theory, the inventors hypothesise that this may due to the fact PBT2 is a derivative of the iron chelator clioquinol and PBT2 has the capacity to chelate a range of heavy metals including iron. Genes encoding metal homeostasis proteins (blue dots) are presented in the volcano plot (FIG. 3). Metal homeostasis was previously identified as a crucial feature of gonococcal biology, and therefore it is postulated this may be an “Achilles' heel” with respect to Neisseria gonorrhoeae ionophore sensitivity. […] MpeR is an iron-repressed, AraC-like protein that regulates the mtr efflux locus (involved in antimicrobial susceptibility) in Neisseria gonorrhoeae. Up-regulation of mpeR (e. g. by PBT2) down-regulates MtrF and, in turn, would increase Neisseria gonorrhoeae sensitivity to the antimicrobial detergent, Triton X-100 (22). […] Thus, without wishing to be bound to theory, the inventors hypothesise that PBT2 may influence bacterial iron homeostasis and trigger general defence mechanisms, such as Mtr-mediated antimicrobial efflux, but the Mtr-system may be unable to protect against PBT2.

[7] = system: Neisseria meningitidis PMC2 (Z/29E); experiment: MIC of PBT2 (broth and agar)
[8] = system: Neisseria meningitidis PMC10 (Y); experiment: MIC of PBT2 (broth and agar)
[9] = system: vancomycin-resistant Enterococcus (VRE); details: in the absence of an antibiotic; cited from earlier work
[10] = system: non-typeable Haemophilus influenzae (NTHi) 2019; experiment: MIC of PBT2 alone (broth); format: cell-based
Protocol: as §1

[11] = system: non-typeable Haemophilus influenzae (NTHi) 723; experiment: MIC of PBT2 alone (broth); format: cell-based
Protocol: as §1

[12] = system: non-typeable Haemophilus influenzae (NTHi) 86-028NP; experiment: MIC of PBT2 alone (broth); format: cell-based
Protocol: as §1

[13] = system: non-typeable Haemophilus influenzae (NTHi) R2866; experiment: MIC of PBT2 alone (broth); format: cell-based
Protocol: as §1

[14] = system: non-typeable Haemophilus influenzae (NTHi) ATCC49766; experiment: MIC of PBT2 alone (broth); format: cell-based
Protocol: as §1

[15] = system: Neisseria meningitidis 8013 (C); experiment: MIC of PBT2 (broth and agar)
Neisseria meningitidis = experiment: MIC / susceptibility across Neisseria meningitidis strains; details: all strains tested; for MIC: Neisseria meningitidis
Helicobacter pylori = experiment: Sensitivity across Helicobacter pylori strains; format: cell-based; details: strains tested
Protocol: The MIC of PBT2 against four Helicobacter pylori 26695 strains was determined. The strains tested were sensitive to PBT2.

[16] = system: Helicobacter pylori CH428; experiment: MIC of PBT2 alone (agar); format: cell-based
[17] = system: Neisseria meningitidis Z2491 (A); experiment: MIC of PBT2 (broth and agar)
[18] = system: Helicobacter pylori CH426; experiment: MIC of PBT2 alone (agar); format: cell-based
[19] = system: Neisseria meningitidis PMC1 (X); experiment: MIC of PBT2 (broth and agar)
[20] = Plasma drug level of PBT2 in clinical trial (NCT02249728); format: in vivo, human; details: 250 mg/day; MDR Neisseria gonorrhoeae
[21] = system: Campylobacter jejuni NCTC 11168; experiment: MIC of PBT2 alone (broth); format: cell-based; details: NCTC11168
Protocol: as §3

[22] = system: Campylobacter jejuni ATCC 33560; experiment: MIC of PBT2 alone (broth); format: cell-based; details: ATCC33560
Protocol: as §3

[23] = system: Campylobacter jejuni 81-176; experiment: MIC of PBT2 alone (broth); format: cell-based; details: 81176
Protocol: as §3

In the case of `CN(C)Cc1ccc2c(Cl)cc(Cl)c(O)c2n1` [PBT2, 5,7-dichloro-2-[(dimethylamino)methyl]quinolin-8-ol], the “susceptibility of bacteria to antibiotics” value [1] is given as “more susceptible to antibiotics”, the “time in which antibacterial activity occurred” value [2] is given as no more than 3 h and the sensitivity [3] is given as “sensitive”. For the same compound, the “reduction in Neisseria gonorrhoeae survival” value ([4]; 24 h post-treatment, PBT2 0.016 to 4.695 mg/L, FIG. 4) was “dose-dependent reduction”, the “effectiveness versus ceftriaxone (0.5 mg/L)” value ([4]; >0.157 mg/L PBT2, 24 h) was “comparable effectiveness to that observed for the control antibiotic, ceftriaxone” and the p versus vehicle ([4]; survival at 24 h, FIG. 4, CRO 0.5 mg/L) was less than 0.0001. The “PBT2-induced Pex cell cytotoxicity” value [5] was “not observed”, the sensitivity (Campylobacter jejuni) was “sensitive” and the “effect on sensitivity to Triton X-100” value [6] was “increased the sensitivity”. For the same compound, the MIC ([7]; agar) was 0.039 µg/mL, the MIC ([7]; broth) was 0.156 µg/mL and the MIC ([8]; agar) was 0.156 µg/mL. For the same compound, the MIC ([8]; broth) was 0.625 µg/mL, the antibacterial activity [9] was “neither PBT2 nor zinc alone displayed antibacterial activity which would be suitable to treat an infection” and the MIC [10] was 2.5 µg/mL. The MIC [11] was 1.25 µg/mL, the MIC [12] was 2.5 µg/mL and the MIC [13] was 2.5 µg/mL. The MIC [14] was 0.312 µg/mL, the MIC ([15]; agar) was 0.078 µg/mL and the MIC ([15]; broth) was 0.156 µg/mL. For the same compound, the MIC (Neisseria meningitidis; agar) was 0.039 to 0.156 µg/mL (≈ 0.144 to 0.575 µM), the MIC (Neisseria meningitidis; broth) was 0.156 to 0.625 µg/mL (≈ 0.575 to 2.31 µM) and the sensitivity (Neisseria meningitidis) was “sensitive”. For the same compound, the sensitivity (Helicobacter pylori) was “sensitive”, the MIC [16] was 2.5 µg/mL and the MIC ([17]; agar) was 0.039 µg/mL. For the same compound, the MIC ([17]; broth) was 0.156 µg/mL, the MIC [18] was 1.25 µg/mL and the MIC [19] was 0.039 µg/mL. For the same compound, the “plasma AUC relative to PBT2 MIC (313 ng/ml)” value [20] was 5 fold, the MIC [21] was 0.313 µg/mL and the MIC [22] was 0.156 µg/mL. For the same compound, the MIC [23] was 0.156 µg/mL.

Source: patent publication US20260306476A1, “ANTIBACTERIAL COMPOUND PBT2” (priority 2022, published 2026)
